According to PMC4865820, “Branched Peptide, B2088, Disrupts the Supramolecular Organization of Lipopolysaccharides and Sensitizes the Gram-negative Bacteria” (Scientific Reports, 2016):
Positions of bridges follow the written chain, without caps; N, C: chain ends. Residues, ends and D or L forms follow the SMILES beside them. Chains are numbered I, II in the order given.

Experiments:
P. aeruginosa ATCC 9027 = assay: Outer membrane permeability assay (NPN); type: cell-based; conditions: no unit in table; Fig. S5 axis [Peptide], μM; 10 μM NPN, 5 mM HEPES pH 7.4, ex 355/em 405 nm; average of two titrations; read-out: PC50 (peptide concentration for half-maximal NPN intensity, OM permeability)
Protocol: The ability of each peptide to permeabilize the OM of Gram-negative organisms was determined using the hydrophobic fluorescent probe 1-N-phenylnaphthylamine (NPN) as previously reported. P. aeruginosa ATCC 9027 cells from an overnight MHB culture were harvested after centrifuging at 3000 rpm for 10 minutes. The pellet was washed twice, suspended in 5 mM HEPES (N- 2-hydroxyethylpiperazine-N’-2 ethanesulfonic acid) buffer (pH 7.4) and adjusted to an OD600 of 0.200. A suspension containing 600 μl of bacteria cells and 1 μl of a concentrated stock solution of NPN was mixed into a 10 mm stirred quartz cuvette so that the final concentration of the probe remained 10 μM. Aliquots containing 1 μl of each peptide in various concentrations (100, 50, 25, 15, 10, 5, 2.5 and 1 μg/ml) were added upon NPN dye stabilization. The fluorescence intensity was monitored using a Quanta Master spectrophotometer with a constant slit width of 0.5 nm, excitation and emission wavelengths set at 355 nm and 405 nm respectively. The peptide concentration required for half-maximal intensity (PC50) was determined by sigmoidal curve fitting using Graphpad Prism software. The experimental data is average of two independent titration experiments.

P. aeruginosa ATCC 27853 [1] = type: cell-based; conditions: ATCC 27853
Protocol: (§1) The synergism between peptides with conventional antibiotics was evaluated using checkerboard assays. For a comparison polymyxin B (PMB) was also tested against each antibiotic. From their stock solutions, two-fold dilutions of each antibiotic and peptide to 1× MIC were prepared in MHB. 50 μl of each peptide concentration was added into the wells of a 96-well polystyrene plates (SPL Life Sciences Co. Ltd, Korea) in a horizontal orientation and the same volume of each antibiotic concentration were then added in a vertical orientation. Bacterial suspensions were prepared in MHB to yield final cell density of ~10^6 CFU/ml and 100 μl of bacterial suspension was mixed with each peptide-antibiotic combinations. This procedure was repeated for wells containing 200 μl of peptide alone and 200 μl of antibiotic alone in various concentrations. The positive and negative controls contained 200 μl of inoculum and MHB alone respectively. The plates were incubated at 37 °C for 24 hours and the optical density at 600 nm (OD600) was monitored as before. Fractional inhibitory concentration index (FICI) for all antibiotic- peptide combinations was calculated through the summation of (MIC of peptide in the combination/ MIC of peptide alone) and (MIC of antibiotics in combination/MIC of antibiotic alone). The experiments were performed in two independent duplicates and the combinations that gave the lowest FICI values was reported.

P. aeruginosa DR4877/07 = type: cell-based
Protocol: as §1

P. aeruginosa 23155 = type: cell-based; conditions: 23155, 24 h
Protocol: (§2) MIC of each peptide was determined using the microdilution method in a 96 well microtitre plates (SPL Life Sciences Co., Ltd, Korea). Two-fold serial dilutions of each peptide in Mueller-Hinton Broth (MHB) was prepared from a 1 mg/ml stock solution of the peptide in the same broth, to obtain a final concentration in the range of 0.0976–50 μg/ml in each well. Bacterial suspensions (P. aeruginosa ATCC 27853, P. aeruginosa 4877, P. aeruginosa 23155, K. pneumoniae ATCC 10031 and K. pneumoniae 4299) were prepared by suspending the overnight cultured bacteria in saline and adjusting the inoculum to ~10^8 colony forming units (CFU) per ml. A further 150-fold dilution was then prepared in MHB to achieve a final cell density of 10^5–10^6 CFU/ml. In each well, 100 μl of inoculum was mixed with the equal volume of peptides at their 2× concentration. Positive and negative controls contained 200 μl of inoculum (without any peptide) and broth alone (no peptide/inoculum) respectively. Another negative control in which MHB containing 200 μl of peptide alone in its highest concentration tested (50 μg/ml) was also included to ensure that the optical density measured in the test wells was not due to turbidity of the peptides in solution. The 96 well polystyrene plates were then incubated at 37 °C for 24 h and the optical density at 600 nm (OD600) was measured every 30 min continuously using a TECAN microplate reader (TECAN Infinite 200, Austria). All the experiments were performed in two independent duplicates and the MIC was determined as the lowest peptide concentration in which no visible growth was observed.

K. pneumoniae ATCC10031 = type: cell-based; conditions: ATCC10031, 24 h
Protocol: as §2

K. pneumonia 4299 = assay: microbe, parasite or virus in culture; type: cell-based, K. pneumoniae; conditions: 24 h
Protocol: as §2

P. aeruginosa ATCC 27853 [2] = assay: microbe, parasite or virus in culture; type: cell-based; conditions: ATCC 27853, 24 h
Protocol: as §2

[3] = test system: LPS (E. coli serotype 055:B5); assay: BODIPY TR cadaverine (BC) displacement assay with LPS; type: binding; conditions: no unit in table; ED50 values in μM; 5 mM HEPES pH 7.4; duplicates; read-out: BC50 (LPS binding)
Source text: To investigate the interaction of B2088 with LPS, we performed the BODIPY TR cadaverine (BC) displacement assay reported by Wood et al.[22]. The probe binds to the lipid A part of the LPS with moderate affinity and can be displaced by putative LPS-binding molecules. The method was used to probe the affinity of polycationic molecules and LPS binding proteins. First, we determined the affinity of polymyxin B (PMB), a lipopeptide cyclic antibiotic which has a high affinity for LPS. […] Figure 1a,b show the concentration-dependent displacement of LPS/lipid A-bound BC upon addition of B2088. […] To confirm the importance of branching, we determined the BC50 for a linear retrodimer having the amino acid sequence, […] (Fig. 1d). The determined value was 2-fold higher (3.9 ± 0.1 μM) than that of B2088, confirming a weaker affinity of the linear peptide.
The BC displacement assay was used to determine the ability of each peptide to bind to LPS. The florescent probe, BODIPY TR cadaverine (BC) was purchased from Molecular Probes/ Invitrogen (USA). A stock solution containing 1 mg/ml of LPS (E. coli serotype 055:B5) was prepared in dimethyl sulfoxide (DMSO) and another stock solution containing 1 mg/ml of BC dye was prepared in 5 mM HEPES buffer (pH 7.4). The optimum saturation concentration of BC:LPS ratio was standardized following the protocol provided by Wood et al. (22). From the BC stock, 240 μl was mixed with 500 μl from the LPS stock solution in 5 mM HEPES buffer (pH 7.4) to prepare 20 ml of BC:LPS mixture. Two-fold serial dilutions of each peptide in 5 mM HEPES buffer (pH 7.4) was prepared from their 1 mg/ml stock solutions to obtain a final range of 0.02–25.6 μM. The BC:LPS mixture was added to 100 μl of each peptide congener in a 1:1 ratio in each well of a 96-well black Costar™ polystyrene microtitre plate (Corning Incorporated, NY, USA). The maximum fluorescence intensity (Fmax) was determined using a mixture containing 100 μl PMB (50 μg/ml) and 100 μl BC:LPS solution, as PMB is considered the ‘gold standard’ for LPS-sequestering agents. The minimum fluorescence intensity (F0) was measured using 200 μl of BC:LPS mixture to determine the background noise for this experiment. Fluorescence measurements for each peptide (F) were determined using a microplate reader (Model: TECAN Infinite 200, Austria) with excitation and emission wavelengths set at 580 nm and 620 nm respectively. The percentage of BC displacement was then calculated using the formula: […]
The experiments were performed in duplicates and the effective concentration required for 50% displacement of BC dye (ED50) from LPS with respect to PMB was determined by curve fitting using Graphpad Prism (CA, USA). A higher ED50 value for the peptide indicates a lower affinity for LPS.

C[C@H](NC(=O)[C@H](C)NC(=O)[C@H](CCCCN)NC(=O)[C@H](CCCNC(=N)N)NC(=O)CNC(=O)[C@@H](N)CCCNC(=N)N)C(=O)N[C@@H](CCCNC(=N)N)C(=O)N[C@@H](CCCNC(=N)N)C(=O)NCCCC[C@H](NC(=O)[C@H](CCCNC(=N)N)NC(=O)[C@H](CCCNC(=N)N)NC(=O)[C@H](C)NC(=O)[C@H](C)NC(=O)[C@H](CCCCN)NC(=O)[C@H](CCCNC(=N)N)NC(=O)CNC(=O)[C@@H](N)CCCNC(=N)N)C(=O)N[C@@H](CCCCN)C(=O)O (I: H-RGRKAARRKK-OH / II: H-RGRKAARR; amide I:9-II:C; N-terminus and C-terminus assumed)
EC50 (P. aeruginosa ATCC 9027): 21.7 ± 0.8 µM
Fractional inhibitory concentration of peptide/PMB, combination with Genta (P. aeruginosa ATCC 27853 [1]; first number in parenthesis): 0.5
Fractional inhibitory concentration of antibiotic, Genta combination (P. aeruginosa ATCC 27853 [1]; second number in parenthesis): 0.06
Fractional inhibitory concentration of peptide/PMB, combination with Chloarm (P. aeruginosa DR4877/07; first number in parenthesis): 0.5
Fractional inhibitory concentration of peptide/PMB, combination with Erythro (P. aeruginosa DR4877/07; first number in parenthesis): (0.5,0.5)
Fractional inhibitory concentration of peptide/PMB, combination with Levo (P. aeruginosa DR4877/07; first number in parenthesis): 0.5
Fractional inhibitory concentration of peptide/PMB, combination with Tobra (P. aeruginosa DR4877/07; first number in parenthesis): 0.5
Fractional inhibitory concentration of antibiotic, Chloarm combination (P. aeruginosa DR4877/07; second number in parenthesis): 0.13
Fractional inhibitory concentration of antibiotic, Erythro combination (P. aeruginosa DR4877/07; second number in parenthesis): (0.5,0.5)
Fractional inhibitory concentration of antibiotic, Levo combination (P. aeruginosa DR4877/07; second number in parenthesis): 0.25
Fractional inhibitory concentration of antibiotic, Tobra combination (P. aeruginosa DR4877/07; second number in parenthesis): 0.25
Minimum Inhibitory Concentration against P. aeruginosa 23155 (P. aeruginosa 23155): 11.5 µM
Minimum Inhibitory Concentration against K. pneumoniae ATCC10031 (K. pneumoniae ATCC10031): 11.5 µM
Minimum Inhibitory Concentration against K. pneumonia 4299 (K. pneumonia 4299): 23 µM
Minimum Inhibitory Concentration against P. aeruginosa ATCC 27853 (P. aeruginosa ATCC 27853 [2]): 11.5 µM
EC50 [3]: 2.1 ± 0.2 µM
